Test results as given in ChEMBL document CHEMBL5649166, “RIP3 induces apoptosis independent of pronecrotic kinase activity” (Mol Cell, 2014).

Tests used:
[1] = target: Dual specificity tyrosine-phosphorylation-regulated kinase 1A (Homo sapiens) (UniProt Q13627); assay: Residual activity of human DYRK1/DYRK1A using RRRFRPASPLRGPPK as substrate at 1 uM in presence of 32P-ATP by Hotspot assay relative to control
[2] = target: STE20/SPS1-related proline-alanine-rich protein kinase (Homo sapiens) (UniProt Q9UEW8); assay: Residual activity of human STK39/STLK3 using myelin basic protein as substrate at 1 uM in presence of 32P-ATP by Hotspot assay relative to control
[3] = target: Serine/threonine-protein kinase PAK 1 (Homo sapiens) (UniProt Q13153); assay: Inhibition of human PAK1 using RRRLSFAEPG as substrate at 1 uM in presence of 32P-ATP by Hotspot assay relative to control; values are per cent of control
[4] = target: Calcium/calmodulin-dependent protein kinase type II subunit gamma (Homo sapiens) (UniProt Q13555); assay: Inhibition of human CAMK2g using KKLNRTLSFAEPG as substrate at 1 uM in presence of 32P-ATP by Hotspot assay relative to control; values are per cent of control
[5] = target: Mitogen-activated protein kinase kinase kinase 8 (Homo sapiens) (UniProt P41279); assay: Inhibition of human COT1/MAP3K8 using MEK1 (K97R) as substrate at 1 uM in presence of 32P-ATP by Hotspot assay relative to control; values are per cent of control
[6] = target: Tyrosine-protein kinase Fgr (Homo sapiens) (UniProt P09769); assay: Inhibition of human FGR using poly[Glu:Tyr] (4:1) as substrate at 1 uM in presence of 32P-ATP by Hotspot assay relative to control; values are per cent of control
[7] = target: T1, Tyrosine-protein kinase ITK/TSK (Homo sapiens) (UniProt Q08881); assay: Inhibition of human ITK using myelin basic protein as substrate at 1 uM in presence of 32P-ATP by Hotspot assay relative to control; values are per cent of control
T1 sequence (whole entry): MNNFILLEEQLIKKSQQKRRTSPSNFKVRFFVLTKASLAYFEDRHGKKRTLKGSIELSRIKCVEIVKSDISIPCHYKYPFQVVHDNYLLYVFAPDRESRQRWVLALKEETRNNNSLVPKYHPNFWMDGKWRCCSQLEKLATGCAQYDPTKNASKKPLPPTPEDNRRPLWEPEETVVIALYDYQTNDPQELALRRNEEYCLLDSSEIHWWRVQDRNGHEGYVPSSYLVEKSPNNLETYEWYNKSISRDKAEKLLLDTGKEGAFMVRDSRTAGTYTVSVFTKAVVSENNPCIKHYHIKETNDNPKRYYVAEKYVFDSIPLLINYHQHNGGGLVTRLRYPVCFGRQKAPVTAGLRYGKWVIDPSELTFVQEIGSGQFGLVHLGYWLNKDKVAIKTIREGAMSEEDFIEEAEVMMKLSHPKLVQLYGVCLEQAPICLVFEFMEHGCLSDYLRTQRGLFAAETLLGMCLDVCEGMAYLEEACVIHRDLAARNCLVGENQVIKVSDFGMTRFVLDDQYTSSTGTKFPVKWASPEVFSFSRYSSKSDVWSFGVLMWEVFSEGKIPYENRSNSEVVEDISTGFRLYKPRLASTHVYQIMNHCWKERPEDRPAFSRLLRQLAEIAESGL

[8] = target: Tyrosine-protein kinase JAK2 (Homo sapiens) (UniProt O60674); assay: Inhibition of human JAK2 using poly[Glu:Tyr] (4:1) as substrate at 1 uM in presence of 32P-ATP by Hotspot assay relative to control; values are per cent of control
[9] = target: T2, Serine/threonine-protein kinase Nek11 (Homo sapiens) (UniProt Q8NG66); assay: Inhibition of human NEK11 using myelin basic protein as substrate at 1 uM in presence of 32P-ATP by Hotspot assay relative to control; values are per cent of control
T2 sequence (whole entry): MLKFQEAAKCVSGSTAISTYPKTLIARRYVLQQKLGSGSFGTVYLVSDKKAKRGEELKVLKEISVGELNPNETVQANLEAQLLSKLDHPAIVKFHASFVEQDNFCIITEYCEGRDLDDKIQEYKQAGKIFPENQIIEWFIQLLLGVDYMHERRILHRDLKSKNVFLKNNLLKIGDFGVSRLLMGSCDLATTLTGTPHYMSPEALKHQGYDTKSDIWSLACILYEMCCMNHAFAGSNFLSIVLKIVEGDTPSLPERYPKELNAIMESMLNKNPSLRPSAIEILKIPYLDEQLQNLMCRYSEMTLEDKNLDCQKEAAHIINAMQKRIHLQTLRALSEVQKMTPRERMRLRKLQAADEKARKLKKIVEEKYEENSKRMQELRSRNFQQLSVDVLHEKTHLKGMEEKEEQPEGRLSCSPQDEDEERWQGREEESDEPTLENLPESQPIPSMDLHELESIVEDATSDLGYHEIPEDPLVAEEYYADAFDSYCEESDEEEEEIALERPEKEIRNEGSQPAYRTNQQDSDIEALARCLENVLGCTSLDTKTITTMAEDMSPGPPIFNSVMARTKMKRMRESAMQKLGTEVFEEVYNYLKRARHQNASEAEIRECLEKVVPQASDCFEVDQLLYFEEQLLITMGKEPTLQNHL

[10] = target: Casein kinase I isoform epsilon (Homo sapiens) (UniProt P49674); assay: Inhibition of human CK1epsilon using KRRRAL[pS]VASLPGL as substrate at 1 uM in presence of 32P-ATP by Hotspot assay relative to control; values are per cent of control
[11] = target: Mitogen-activated protein kinase kinase kinase kinase 4 (Homo sapiens) (UniProt O95819); assay: Inhibition of human HGK/MAP4K4 using myelin basic protein as substrate at 1 uM in presence of 32P-ATP by Hotspot assay relative to control; values are per cent of control
[12] = target: Mitogen-activated protein kinase 11 (Homo sapiens) (UniProt Q15759); assay: Inhibition of human P38b/MAPK11 using myelin basic protein as substrate at 1 uM in presence of 32P-ATP by Hotspot assay relative to control; values are per cent of control
Homo sapiens = organism: Homo sapiens; assay: Inhibition of human CDK7/cyclin H using myelin basic protein as substrate at 1 uM in presence of 32P-ATP by Hotspot assay relative to control; values are per cent of control

Sequence of Tyrosine-protein kinase JAK2 (Homo sapiens) (O60674 whole entry): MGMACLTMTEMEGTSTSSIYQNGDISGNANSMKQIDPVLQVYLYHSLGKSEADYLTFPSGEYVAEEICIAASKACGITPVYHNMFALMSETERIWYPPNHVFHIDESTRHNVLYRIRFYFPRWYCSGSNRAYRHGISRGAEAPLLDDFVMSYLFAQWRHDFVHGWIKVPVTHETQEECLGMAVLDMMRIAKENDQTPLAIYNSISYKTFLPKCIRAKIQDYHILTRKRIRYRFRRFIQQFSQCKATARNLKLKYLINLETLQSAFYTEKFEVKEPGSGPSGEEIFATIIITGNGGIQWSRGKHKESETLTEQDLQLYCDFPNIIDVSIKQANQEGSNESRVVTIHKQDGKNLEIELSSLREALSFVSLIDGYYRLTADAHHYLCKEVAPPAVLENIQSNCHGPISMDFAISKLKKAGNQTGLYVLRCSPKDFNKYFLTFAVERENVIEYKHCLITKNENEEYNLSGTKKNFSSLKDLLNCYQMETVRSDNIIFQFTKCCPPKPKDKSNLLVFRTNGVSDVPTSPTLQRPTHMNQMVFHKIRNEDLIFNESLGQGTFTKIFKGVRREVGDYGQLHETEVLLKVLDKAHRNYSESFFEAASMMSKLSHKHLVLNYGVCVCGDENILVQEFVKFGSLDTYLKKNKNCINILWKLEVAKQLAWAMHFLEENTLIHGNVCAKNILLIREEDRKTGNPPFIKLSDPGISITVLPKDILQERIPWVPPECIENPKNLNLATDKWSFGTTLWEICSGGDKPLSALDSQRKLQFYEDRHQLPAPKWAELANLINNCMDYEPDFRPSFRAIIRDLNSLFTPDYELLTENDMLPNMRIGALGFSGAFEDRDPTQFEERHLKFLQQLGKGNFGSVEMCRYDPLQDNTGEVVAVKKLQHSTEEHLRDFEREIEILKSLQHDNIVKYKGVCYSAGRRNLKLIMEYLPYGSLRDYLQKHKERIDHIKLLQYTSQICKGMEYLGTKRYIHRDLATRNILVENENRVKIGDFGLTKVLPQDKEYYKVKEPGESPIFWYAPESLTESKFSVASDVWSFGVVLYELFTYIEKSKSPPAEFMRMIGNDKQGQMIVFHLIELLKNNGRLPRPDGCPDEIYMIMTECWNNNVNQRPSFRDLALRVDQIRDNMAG
Sequence of Tyrosine-protein kinase Fgr (Homo sapiens) (P09769 2-529 limits assumed): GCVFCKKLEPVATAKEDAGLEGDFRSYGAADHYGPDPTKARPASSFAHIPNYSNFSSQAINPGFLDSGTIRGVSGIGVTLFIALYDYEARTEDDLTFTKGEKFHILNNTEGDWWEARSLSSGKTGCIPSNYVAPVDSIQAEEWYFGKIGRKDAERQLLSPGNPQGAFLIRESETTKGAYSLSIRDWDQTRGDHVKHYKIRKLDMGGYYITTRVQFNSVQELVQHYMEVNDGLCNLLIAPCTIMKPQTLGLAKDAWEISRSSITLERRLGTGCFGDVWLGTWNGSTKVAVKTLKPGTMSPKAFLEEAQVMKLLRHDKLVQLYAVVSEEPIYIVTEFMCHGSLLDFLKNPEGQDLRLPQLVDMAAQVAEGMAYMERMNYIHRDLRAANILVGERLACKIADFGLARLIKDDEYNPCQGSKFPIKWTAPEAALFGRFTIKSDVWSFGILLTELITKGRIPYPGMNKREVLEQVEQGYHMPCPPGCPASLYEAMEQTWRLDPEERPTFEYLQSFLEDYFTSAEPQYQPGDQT
Sequence of Mitogen-activated protein kinase kinase kinase kinase 4 (Homo sapiens) (O95819 2-1239 limits assumed): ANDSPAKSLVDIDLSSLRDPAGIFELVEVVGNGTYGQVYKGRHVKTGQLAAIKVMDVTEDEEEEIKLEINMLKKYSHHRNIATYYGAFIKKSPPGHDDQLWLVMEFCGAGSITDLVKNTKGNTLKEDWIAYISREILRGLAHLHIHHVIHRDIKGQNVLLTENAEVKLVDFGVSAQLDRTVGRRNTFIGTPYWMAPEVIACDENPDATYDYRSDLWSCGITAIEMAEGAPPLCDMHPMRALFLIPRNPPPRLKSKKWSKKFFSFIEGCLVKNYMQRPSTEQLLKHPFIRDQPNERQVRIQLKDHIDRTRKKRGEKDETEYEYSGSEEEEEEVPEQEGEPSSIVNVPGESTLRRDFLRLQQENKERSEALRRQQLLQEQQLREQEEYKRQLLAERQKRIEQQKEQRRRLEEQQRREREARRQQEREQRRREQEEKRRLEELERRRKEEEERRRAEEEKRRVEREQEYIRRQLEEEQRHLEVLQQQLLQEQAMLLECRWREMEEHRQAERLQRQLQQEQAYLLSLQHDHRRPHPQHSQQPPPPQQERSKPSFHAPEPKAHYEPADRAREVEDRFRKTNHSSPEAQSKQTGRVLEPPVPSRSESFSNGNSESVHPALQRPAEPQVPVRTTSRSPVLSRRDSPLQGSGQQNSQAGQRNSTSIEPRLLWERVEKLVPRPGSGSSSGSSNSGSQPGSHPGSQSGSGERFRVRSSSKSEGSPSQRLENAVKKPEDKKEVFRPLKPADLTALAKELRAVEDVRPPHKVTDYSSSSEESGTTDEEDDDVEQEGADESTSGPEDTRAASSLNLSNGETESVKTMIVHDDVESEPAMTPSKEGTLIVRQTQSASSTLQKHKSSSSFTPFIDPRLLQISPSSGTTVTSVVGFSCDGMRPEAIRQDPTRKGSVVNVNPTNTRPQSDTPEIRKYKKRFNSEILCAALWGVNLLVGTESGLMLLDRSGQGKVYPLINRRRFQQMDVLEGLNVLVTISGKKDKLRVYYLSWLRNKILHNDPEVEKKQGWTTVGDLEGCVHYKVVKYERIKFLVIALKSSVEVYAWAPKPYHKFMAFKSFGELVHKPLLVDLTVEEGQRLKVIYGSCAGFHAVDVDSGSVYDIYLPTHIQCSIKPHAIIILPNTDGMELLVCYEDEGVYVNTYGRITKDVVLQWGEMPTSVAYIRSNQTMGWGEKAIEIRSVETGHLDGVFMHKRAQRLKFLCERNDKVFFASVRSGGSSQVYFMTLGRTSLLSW
Sequence of Mitogen-activated protein kinase 11 (Homo sapiens) (Q15759 whole entry): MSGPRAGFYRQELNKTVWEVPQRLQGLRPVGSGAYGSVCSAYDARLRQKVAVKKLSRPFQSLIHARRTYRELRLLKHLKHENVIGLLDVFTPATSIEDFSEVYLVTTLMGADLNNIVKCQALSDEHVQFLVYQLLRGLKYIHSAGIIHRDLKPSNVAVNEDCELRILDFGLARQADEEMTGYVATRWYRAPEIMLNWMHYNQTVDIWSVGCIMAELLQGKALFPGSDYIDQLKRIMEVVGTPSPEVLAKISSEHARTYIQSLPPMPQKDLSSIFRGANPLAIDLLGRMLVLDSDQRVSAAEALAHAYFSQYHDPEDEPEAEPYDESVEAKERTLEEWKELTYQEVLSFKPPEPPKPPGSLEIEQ
Sequence of Mitogen-activated protein kinase kinase kinase 8 (Homo sapiens) (P41279 whole entry): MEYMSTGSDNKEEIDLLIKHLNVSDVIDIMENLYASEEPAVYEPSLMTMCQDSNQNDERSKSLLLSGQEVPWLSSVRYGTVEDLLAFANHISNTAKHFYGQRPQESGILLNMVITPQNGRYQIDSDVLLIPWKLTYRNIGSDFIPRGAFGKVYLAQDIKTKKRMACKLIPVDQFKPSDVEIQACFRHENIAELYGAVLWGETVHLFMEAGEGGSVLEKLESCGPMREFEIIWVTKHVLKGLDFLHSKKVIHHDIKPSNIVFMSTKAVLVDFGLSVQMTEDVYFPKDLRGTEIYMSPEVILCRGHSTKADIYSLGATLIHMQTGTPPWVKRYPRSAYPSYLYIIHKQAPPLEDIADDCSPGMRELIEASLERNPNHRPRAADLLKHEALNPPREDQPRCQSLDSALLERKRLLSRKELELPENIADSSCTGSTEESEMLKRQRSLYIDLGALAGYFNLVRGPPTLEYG
Sequence of Casein kinase I isoform epsilon (Homo sapiens) (P49674 whole entry, looked up, canonical isoform): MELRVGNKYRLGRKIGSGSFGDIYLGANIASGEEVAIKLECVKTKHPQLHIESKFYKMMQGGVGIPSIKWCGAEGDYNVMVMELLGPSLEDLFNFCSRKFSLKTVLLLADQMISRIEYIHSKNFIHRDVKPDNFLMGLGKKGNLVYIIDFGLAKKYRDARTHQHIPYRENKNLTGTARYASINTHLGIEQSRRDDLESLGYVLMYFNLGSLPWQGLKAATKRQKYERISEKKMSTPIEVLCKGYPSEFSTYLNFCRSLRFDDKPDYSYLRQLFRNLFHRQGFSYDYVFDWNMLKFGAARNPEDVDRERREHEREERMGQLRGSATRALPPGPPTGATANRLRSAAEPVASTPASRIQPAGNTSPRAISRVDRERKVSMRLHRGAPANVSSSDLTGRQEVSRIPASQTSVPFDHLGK
Sequence of Calcium/calmodulin-dependent protein kinase type II subunit gamma (Homo sapiens) (Q13555 whole entry): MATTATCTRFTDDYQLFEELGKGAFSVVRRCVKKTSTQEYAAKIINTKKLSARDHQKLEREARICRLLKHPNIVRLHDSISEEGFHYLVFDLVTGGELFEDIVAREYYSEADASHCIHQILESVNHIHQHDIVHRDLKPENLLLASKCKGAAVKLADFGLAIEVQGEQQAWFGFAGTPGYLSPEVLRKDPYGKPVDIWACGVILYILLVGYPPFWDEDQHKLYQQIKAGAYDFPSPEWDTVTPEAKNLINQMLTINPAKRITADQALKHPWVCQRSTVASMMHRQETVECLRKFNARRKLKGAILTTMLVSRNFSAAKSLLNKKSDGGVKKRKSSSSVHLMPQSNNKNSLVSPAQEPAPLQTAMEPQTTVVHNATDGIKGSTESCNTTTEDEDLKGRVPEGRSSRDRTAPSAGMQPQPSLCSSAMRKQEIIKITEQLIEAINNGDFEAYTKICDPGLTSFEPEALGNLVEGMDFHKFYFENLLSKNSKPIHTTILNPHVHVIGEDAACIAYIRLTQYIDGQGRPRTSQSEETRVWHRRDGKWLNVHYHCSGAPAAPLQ

Structure (SMILES)	residual activity [1] [%]	residual activity [2] [%]	residual activity [3] [%]	residual activity [4] [%]	residual activity [5] [%]	residual activity [6] [%]	residual activity [7] [%]	residual activity [8] [%]	residual activity [9] [%]	residual activity [10] [%]	residual activity [11] [%]	residual activity [12] [%]	residual activity (Homo sapiens) [%]
Cc1cc(-c2cnc(N)c3c(-c4ccc5scnc5c4)csc23)n(C)n1	99.6	108	93.8	82.4	106	22.2	98.3	89.8	97.3	73	21.2	37.8	94.2
CNC(=O)c1ccc2c(c1)ncn2-c1ccc(CC(=O)OC(C)(C)C)cc1	99.4	103	95.9	98.5	108	37.6	99	95.7	102	94.2	102	97.1	96.2
CC(C)S(=O)(=O)c1ccc2nccc(Nc3ccc4scnc4c3)c2c1	98.8	94.9	96.5	98.3	85.2	28.5	104	102	89.5	106	83	102	97.7
